Reference: US20240208994A1, “PLASMA KALLIKREIN INHIBITORS” (Merck Sharp & Dohme LLC, priority 2021, published 2024)

What was measured:
[1] = biological target: T1, Human plasma kallikrein (Homo sapiens, UniProt P03952); assay: Plasma Kallikrein Assay; type: biochemical; details: purified Human plasma kallikrein 0.5 nM, substrate Acetyl-K-P-R-AFC, HEPES pH 7.4, fluorescence 405 Ex/510 Em; read-out: PKal IC50
T1 construct: yields a heavy chain (371 amino acids) and a light chain (248 amino acids); purchased Enzyme Research Laboratories
Procedure: (§1) The effectiveness of a compound of the present invention as an inhibitor of plasma kallikrein can be determined using a relevant purified serine protease, and an appropriate synthetic substrate. The rate of hydrolysis of the chromogenic or fluorogenic substrate by the relevant serine protease was measured both in the absence and presence of compounds of the present invention. Assays were conducted at rt or at 37° C. […] A decrease in the rate of fluorescence change in the presence of inhibitor is indicative of enzyme inhibition. Such methods are known to one skilled in the art. The results of this assay are expressed as the half-maximal inhibitory concentrations (IC50), or the inhibitory constant, Ki.
Plasma kallikrein determinations were made in 50 mM HEPES buffer at pH 7.4 containing 150 mM NaCl, 5 mM CaCl2), and 0.1% PEG 8000 (polyethylene glycol: Fisher Scientific). Determinations were made using purified Human plasma kallikrein at a final concentration of 0.5 nM (Enzyme Research Laboratories) and the synthetic substrate, Acetyl-K-P-R-AFC (Sigma #C6608) at a concentration of […].
Activity assays were performed by diluting a stock solution of substrate at least tenfold to a final concentration ≤0.2 Km into a solution containing enzyme or enzyme equilibrated with inhibitor. Times required to achieve equilibration between enzyme and inhibitor were determined in control experiments. The reactions were performed under linear progress curve conditions and fluorescence increase measured at 405 Ex/510 Em nm. Values were converted to percent inhibition of the control reaction (after subtracting 100% Inhibition value). IC50 was determined by inflection point from a four parameter logistic curve fit. Ki was calculated using the Cheng Prusoff equation, Ki=IC50/(1+([S]/Km)).

[2] = biological target: human factor XIa (Homo sapiens, UniProt P03951); assay: Factor XIa Assay; type: biochemical; details: human factor XIa 0.04 nM, 30 min pre-incubation at 25° C., substrate GPR-AFC, pH 7.4, 60 min incubation; read-out: FXIa IC50
Procedure: as §1, with “Coagulation factor XIa” for “plasma kallikrein”
Compounds were pre-incubated for 30 min at 25° C. with human (0.04 nM) factor XIa in 50 mM HEPES buffer with 150 mM sodium chloride, 5 mM calcium chloride, 0.1% PEG 8000, pH 7.4. factor XIa enzymatic activity was determined by addition of the substrate glycine-proline-arginine-7-amido-4-trifluoromethylcoumarin (GPR-AFC) and measurement of the fluorescence at 400/505 nm after a 60 min incubation at 25° C. The % inhibition for each data point was calculated from the data and analyzed using the log (inhibitor) vs. response four parameters equation to determine the half-maximal inhibitory concentrations (IC50). The IC50 were converted to equilibrium inhibitory constants (Ki) using the Cheng-Prusoff equation.

T1 sequence (P03952 391-638 limits assumed): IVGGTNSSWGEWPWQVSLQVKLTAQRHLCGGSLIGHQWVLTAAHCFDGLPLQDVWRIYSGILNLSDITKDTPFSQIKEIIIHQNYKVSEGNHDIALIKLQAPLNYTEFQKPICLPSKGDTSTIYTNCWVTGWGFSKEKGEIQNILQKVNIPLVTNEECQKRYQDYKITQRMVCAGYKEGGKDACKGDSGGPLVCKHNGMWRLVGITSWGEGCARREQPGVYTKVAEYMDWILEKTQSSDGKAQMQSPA
T1 sequence (P03952 20-390 partner limits assumed): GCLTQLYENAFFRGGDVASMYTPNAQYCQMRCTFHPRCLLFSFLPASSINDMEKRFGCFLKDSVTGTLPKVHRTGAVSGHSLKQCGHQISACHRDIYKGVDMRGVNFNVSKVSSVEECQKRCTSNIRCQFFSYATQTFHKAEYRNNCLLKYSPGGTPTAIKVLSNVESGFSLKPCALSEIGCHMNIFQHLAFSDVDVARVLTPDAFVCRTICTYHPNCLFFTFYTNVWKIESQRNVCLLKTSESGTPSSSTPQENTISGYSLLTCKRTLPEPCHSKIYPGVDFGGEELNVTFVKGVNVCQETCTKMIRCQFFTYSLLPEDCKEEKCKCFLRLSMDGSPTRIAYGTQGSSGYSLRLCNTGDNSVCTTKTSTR
Chain of human factor XIa (P03951 388-625 limits assumed): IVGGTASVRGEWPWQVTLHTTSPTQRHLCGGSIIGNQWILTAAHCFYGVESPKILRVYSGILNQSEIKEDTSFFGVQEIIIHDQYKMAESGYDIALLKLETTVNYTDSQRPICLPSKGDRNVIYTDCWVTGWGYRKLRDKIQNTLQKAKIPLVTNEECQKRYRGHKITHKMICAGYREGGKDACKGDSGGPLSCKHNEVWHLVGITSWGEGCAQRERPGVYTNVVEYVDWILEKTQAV
Chain of human factor XIa (P03951 19-387 partner limits assumed): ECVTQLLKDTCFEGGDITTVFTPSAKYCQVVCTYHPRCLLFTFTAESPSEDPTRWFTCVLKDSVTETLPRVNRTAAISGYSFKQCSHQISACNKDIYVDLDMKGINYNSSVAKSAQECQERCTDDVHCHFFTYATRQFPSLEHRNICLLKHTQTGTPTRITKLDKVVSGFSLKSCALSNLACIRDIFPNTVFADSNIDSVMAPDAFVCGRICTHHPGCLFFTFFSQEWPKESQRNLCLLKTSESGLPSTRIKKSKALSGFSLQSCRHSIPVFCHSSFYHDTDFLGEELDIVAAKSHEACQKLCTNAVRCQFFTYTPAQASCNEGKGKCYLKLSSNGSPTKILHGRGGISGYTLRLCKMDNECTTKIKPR

An IC50 [1] of 5.4 nM and an IC50 [2] of 422 nM were found for `Nc1cc(-c2ccccc2C(F)(F)F)nn1CC(=O)N1CC[C@@]2(C1)OC(=O)Nc1ccc(Cl)c(F)c12` [Example 50, (R)-1′-(2-(5-Amino-3-(2-(trifluoromethyl)phenyl)-1H-pyrazol-1-yl)acetyl)-6-chloro-5-fluorospiro[benzo[d][1,3]oxazine-4,3′-pyrrolidin]-2(1H)-one] in this work.

An IC50 [1] of 2.5 nM and an IC50 [2] of 287 nM were found for `Nc1cc(-c2ccccc2OC(F)(F)F)nn1CC(=O)N1CC[C@@]2(C1)OC(=O)Nc1ccc(Cl)c(F)c12` [Example 55, (R)-1′-(2-(5-Amino-3-(2-(trifluoromethoxy)phenyl)-1H-pyrazol-1-yl)acetyl)-6-chloro-5-fluorospiro[benzo[d][1,3]oxazine-4,3′-pyrrolidin]-2(1H)-one] in this work.

An IC50 [1] of 30.6 nM and an IC50 [2] of 685 nM were found for `Nc1cc(C2CCOCC2)nn1CC(=O)N1CC[C@@]2(C1)OC(=O)Nc1ccc(Cl)c(F)c12` [Example 5, (R)-1′-(2-(5-Amino-3-(tetrahydro-2H-pyran-4-y1)-1H-pyrazol-1-yl)acetyl)-6-chloro-5-fluorospiro[benzo[d][1,3]oxazine-4,3′-pyrrolidin]-2(1H)-one] in this work.

An IC50 [1] of 25.3 nM and an IC50 [2] of 424 nM were found for `Nc1cc(-c2ncc(F)cc2F)nn1CC(=O)N1CC[C@@]2(C1)OC(=O)Nc1ccc(Cl)c(F)c12` [Example 27, (R)-1′-(2-(5-Amino-3-(3,5-difluoropyridin-2-yl)-1H-pyrazol-1-yl)acetyl)-6-chloro-5-fluorospiro[benzo[d][1,3]oxazine-4,3′-pyrrolidin]-2(1H)-one] in this work.

An IC50 [1] of 12.9 nM and an IC50 [2] of 389 nM were found for `Nc1cc(-c2cccnc2)nn1CC(=O)N1CC[C@@]2(C1)OC(=O)Nc1ccc(Cl)c(F)c12` [Example 9, (R)-1′-(2-(5-Amino-3-(pyridin-3-yl)-1H-pyrazol-1-yl)acetyl)-6-chloro-5-fluorospiro[benzo[d][1,3]oxazine-4,3′-pyrrolidin]-2(1H)-one] in this work.

An IC50 [1] of 27.4 nM and an IC50 [2] of 506 nM were found for `Nc1cc(C2CC2)nn1CC(=O)N1CC[C@@]2(C1)OC(=O)Nc1ccc(Cl)c(F)c12` [Example 10] in this work.

An IC50 [1] of 20.4 nM and an IC50 [2] of 2820 nM were found for `Nc1cc(-c2cccc(Cl)c2)nn1CC(=O)N1CCC[C@@]2(C1)OC(=O)Nc1ccc(Cl)c(F)c12` [Example 16, (R)-1′-(2-(5-Amino-3-(3-chlorophenyl)-1H-pyrazol-1-yl)acetyl)-6-chloro-5-fluorospiro[benzo[d][1,3]oxazine-4,3′-piperidin]-2(1H)-one] in this work.

An IC50 [1] of 3.3 nM and an IC50 [2] of 29 nM were found for `Nc1c2c(nn1CC(=O)N1CC[C@@]3(C1)OC(=O)Nc1ccc(Cl)c(F)c13)-c1ccccc1C2` [Example 14, (R)-1′-(2-(3-Aminoindeno[1,2-c]pyrazol-2(4H)-y1)acetyl)-6-chloro-5-fluorospiro[benzo[d] [1,3]oxazine-4,3′-pyrrolidin]-2(1H)-one] in this work.

An IC50 [1] of 14.3 nM and an IC50 [2] of 739 nM were found for `Nc1cc(-c2ccc(F)c(F)c2)nn1CC(=O)N1CC[C@@]2(C1)OC(=O)Nc1ccc(Cl)c(F)c12` [Example 47, (R)-1′-(2-(5-Amino-3-(3,4-difluorophenyl)-1H-pyrazol-1-yl)acetyl)-6-chloro-5-fluorospiro[benzo[d][1,3]oxazine-4,3′-pyrrolidin]-2(1H)-one] in this work.

An IC50 [1] of 26.3 nM and an IC50 [2] of 516 nM were found for `Nc1c(Cl)c(-c2ccccc2)nn1CC(=O)N1CCC[C@@]2(C1)OC(=O)Nc1ccc(Cl)c(F)c12` [Example 22, (R)-1′-(2-(5-Amino-4-chloro-3-phenyl-1H-pyrazol-1-yl)acetyl)-6-chloro-5-fluorospiro[benzo[d][1,3]oxazine-4,3′-piperidin]-2(1H)-one] in this work.

An IC50 [1] of 5.1 nM and an IC50 [2] of 289 nM were found for `Cc1ccccc1-c1cc(N)n(CC(=O)N2CC[C@@]3(C2)OC(=O)Nc2ccc(Cl)c(F)c23)n1` [Example 54, (R)-1′-(2-(5-Amino-3-(o-tolyl)-1H-pyrazol-1-yl)acetyl)-6-chloro-5-fluorospiro[benzo[d][1,3]oxazine-4,3′-pyrrolidin]-2(1H)-one] in this work.

An IC50 [1] of 9.9 nM and an IC50 [2] of 513 nM were found for `Nc1cc(-c2ccc(F)cc2)nn1CC(=O)N1CC[C@@]2(C1)OC(=O)Nc1ccc(Cl)c(F)c12` [Example 1, (R)-1′-(2-(5-Amino-3-(4-fluorophenyl)-1H-pyrazol-1-yl)acetyl)-6-chloro-5-fluorospiro[benzo[d][1,3]oxazine-4,3′-pyrrolidin]-2(1H)-one 2,2,2-trifluoroacetate] in this work.

An IC50 [1] of 3.2 nM and an IC50 [2] of 187 nM were found for `Nc1cc(-c2ccccc2Cl)nn1CC(=O)N1CC[C@@]2(C1)OC(=O)Nc1ccc(Cl)c(F)c12` [Example 43, (R)-1′-(2-(5-Amino-3-(2-chlorophenyl)-1H-pyrazol-1-yl)acetyl)-6-chloro-5-fluorospiro[benzo[d][1,3]oxazine-4,3′-pyrrolidin]-2(1H)-one] in this work.

An IC50 [1] of 18.1 nM and an IC50 [2] of 286 nM were found for `Nc1cc(-c2nccs2)nn1CC(=O)N1CC[C@@]2(C1)OC(=O)Nc1ccc(Cl)c(F)c12` [Example 41, (R)-1′-(2-(5-Amino-3-(thiazol-2-y1)-1H-pyrazol-1-yl)acetyl)-6-chloro-5-fluorospiro[benzo[d] [1,3]oxazine-4,3′-pyrrolidin]-2(1H)-one] in this work.

An IC50 [1] of 38.8 nM and an IC50 [2] of 277 nM were found for `Nc1c2c(nn1CC(=O)N1CC[C@@]3(C1)OC(=O)Nc1ccc(Cl)c(F)c13)CCC2` [Example 13, (R)-1′-(2-(3-Amino-5,6-dihydrocyclopenta[c]pyrazo1-2(4H)-yl)acetyl)-6-chloro-5-fluorospiro[benzo[d] [1,3]oxazine-4,3′-pyrrolidin]-2(1H)-one] in this work.

An IC50 [1] of 6.6 nM and an IC50 [2] of 505 nM were found for `COc1ccccc1-c1cc(N)n(CC(=O)N2CC[C@@]3(C2)OC(=O)Nc2ccc(Cl)c(F)c23)n1` [Example 62, (R)-1′-(2-(5-Amino-3-(2-methoxyphenyl)-1H-pyrazol-1-yl)acetyl)-6-chloro-5-fluorospiro[benzo[d][1,3]oxazine-4,3′-pyrrolidin]-2(1H)-one] in this work.

An IC50 [1] of 37.8 nM and an IC50 [2] of 347 nM were found for `CC1(c2cc(N)n(CC(=O)N3CC[C@@]4(C3)OC(=O)Nc3ccc(Cl)c(F)c34)n2)CC1` [Example 3, (R)-1′-(2-(5-Amino-3-(1-methylcyclopropyl)-1H-pyrazol-1-yl)acetyl)-6-chloro-5-fluorospiro[benzo[d][1,3]oxazine-4,3′-pyrrolidin]-2(1H)-one] in this work.

An IC50 [1] of 11.8 nM and an IC50 [2] of 1790 nM were found for `Nc1cc(-c2ccccc2)nn1CC(=O)N1CCC[C@@]2(C1)OC(=O)Nc1ccc(Cl)c(F)c12` [Example 23, (R)-1′-(2-(5-Amino-3-phenyl-1H-pyrazol-1-yl)acetyl)-6-chloro-5-fluorospiro[benzo[d][1,3]oxazine-4,3′-piperidin]-2(1H)-one] in this work.

An IC50 [1] of 16.3 nM and an IC50 [2] of 315 nM were found for `Nc1cc(C2CCCC2)nn1CC(=O)N1CC[C@@]2(C1)OC(=O)Nc1ccc(Cl)c(F)c12` [Example 4, (R)-1′-(2-(5-Amino-3-cyclopenty1-1H-pyrazol-1-yl)acetyl)-6-chloro-5-fluorospiro[benzo[d][1,3]oxazine-4,3′-pyrrolidin]-2(1H)-one] in this work.

An IC50 [1] of 24.5 nM and an IC50 [2] of 280 nM were found for `Nc1c(Cl)c(-c2ncccn2)nn1CC(=O)N1CCC[C@@]2(C1)OC(=O)Nc1ccc(Cl)c(F)c12` [Example 35, (R)-1′-(2-(5-Amino-4-chloro-3-(pyrimidin-2-y1)-1H-pyrazol-1-yl)acetyl)-6-chloro-5-fluorospiro[benzo[d][1,3]oxazine-4,3′-piperidin]-2(1H)-one] in this work.

An IC50 [1] of 17 nM and an IC50 [2] of 556 nM were found for `Nc1cc(-c2cccc(F)c2)nn1CC(=O)N1CC[C@@]2(C1)OC(=O)Nc1ccc(Cl)c(F)c12` [Example 64, (R)-1′-(2-(5-Amino-3-(3-fluorophenyl)-1H-pyrazol-1-yl)acetyl)-6-chloro-5-fluorospiro[benzo[d] [1,3]oxazine-4,3′-pyrrolidin]-2(1H)-one] in this work.
